Activity calls are given as the source filed them. No cut-off for these calls is given here.
These compounds were tested against Aldo-keto reductase family 1 member B1 (Rattus norvegicus) (UniProt P07943) (assay: Compound was tested for inhibition of crude aldose reductase obtained from rat lens, at the concentration of 100 uM; Inactive).

| Structure (SMILES) | inhibition |
| --- | --- |
| CCOC(=O)Cn1c(=O)cc(C)c2ccccc21 | inactive |

These compounds were tested against Aldo-keto reductase family 1 member B1 (Rattus norvegicus) (UniProt P07943) (assay: Compound was tested for inhibition of crude aldose reductase obtained from rat lens, at the concentration of 100 uM).

| Structure (SMILES) | inhibition [%] |
| --- | --- |
| COc1ccc2nc(O)ccc2c1 | 25.8 |
| Cc1cc(=O)[nH]c2ccccc12 | 24 |
| CC(=O)Oc1cccc2ccc(O)nc12 | 9.5 |
| Cc1cc(=O)n(C)c2ccccc12 | 42 |

What follows are compounds tested against Aldo-keto reductase family 1 member B1 (Rattus norvegicus) (UniProt P07943) (assay: Compound was tested for 50% inhibition of crude aldose reductase obtained from rat lens).

| Structure (SMILES) | inhibition [%] |
| --- | --- |
| O=C(O)Cn1ccccc1=O | 33 |

These compounds were tested against Aldo-keto reductase family 1 member B1 (Rattus norvegicus, UniProt P07943) (assay: Inhibition of crude aldose reductase of rat lens).

| Structure (SMILES) | IC50 [µM] |
| --- | --- |
| O=C(O)CN1C(=O)c2cccc3cccc(c23)C1=O [ALRESTATIN] | 1.5 |
| Cc1cc(=O)n(C(C)C(=O)O)c2ccccc12 (stereo unspecified) | 470 |
| COc1ccc2c(ccc(=O)n2CC(=O)O)c1 | 0.91 |
| COc1ccc2c(ccc(=O)n2C(C)C(=O)O)c1 (stereo unspecified) | 590 |
| O=C(O)Cn1c(=O)ccc2cccc(O)c21 | 3.3 |
| Cc1cc(=O)n(CCC(=O)O)c2ccccc12 | 110 |
| CC(C(=O)O)n1c(=O)ccc2cccc(O)c21 (stereo unspecified) | 33 |
| Cc1cc(=O)n(CC(=O)O)c2ccc([N+](=O)[O-])cc12 | 0.45 |
| Cc1cc(=O)n(CC(=O)O)c2ccccc12 | 6 |
| O=C(O)Cn1c(=O)ccc2cc(O)ccc21 | 2.4 |
